Consider 9 compounds from patent publication US20150246888A1, “ENOYL REDUCTASE INHIBITORS WITH ANTIBACTERIAL ACTIVITY” (priority 2012, published 2015).

As usually defined, the IC50 is the concentration needed to halve the response being measured. The term Ki denotes the equilibrium dissociation constant of an inhibitor or competing ligand from its target.

For one experiment, the system named is S. aureus membrane. The experiment can be described thus: Membrane depolarization as a function of time. The class given is cell-based.
Another experiment concerns S. aureus. The experiment is described as follows: Cell viability as a function of time (measured with depolarization). The class given is cell-based.
Experiment [1] has as its system S. aureus (ATCC number 29213). The experiment is described as follows: microbe, parasite or virus in culture. The format is cell-based.
A further experiment concerns the target FtuFabI (Francisella tularensis subsp. tularensis, UniProt Q5NGQ3). The experiment is described as follows: biochemical. On the set-up: species or system F. tularensis subsp. tularensis Schu4.
Experiment [2] has as its system E. coli TolC-, an efflux defective mutant. The experiment can be described thus: microbe, parasite or virus in culture. The class given is cell-based. The settings on record: Escherichia coli.
The subject of experiment [3] is B. anthracis, ΔANR strain. The experiment is described as follows: microbe, parasite or virus in culture. The format is cell-based. The settings on record: Bacillus anthracis.
Experiment [4] deals with E. coli (BW251113 strain). The experiment is described as follows: microbe, parasite or virus in culture. The format is cell-based. The settings on record: Escherichia coli.
Experiment [5] concerns F. tularensis, strain Utah 112. The experiment can be described thus: microbe, parasite or virus in culture. The class given is cell-based. To be noted: Francisella tularensis, UTAH112.
A further experiment concerns MRSA (ATCC number 43300). The experiment can be described thus: microbe, parasite or virus in culture. The format is cell-based, methicillin-resistant Staphylococcus aureus. The settings on record: Staphylococcus aureus.
A further experiment addresses FabI (Francisella tularensis subsp. tularensis, UniProt Q5NGQ3). The experiment is described as follows: biochemical. More on the design: species or system F. tularensis subsp. tularensis Schu4.
Setting [6] is: read-out: IC50, Inhibition of FabI.
[7] abbreviates: read-out: Ki^2 (Calculated using the Cheng-Prusoff Equation).
Setting [8] is: read-out: Ki^1 (Experimental Ki).

Values after ≈ are worked out from the molar mass of the structure shown. Like-named read-outs stand apart in the source and are kept apart here.

Chain of FabI (Q5NGQ3 1-260 limits assumed): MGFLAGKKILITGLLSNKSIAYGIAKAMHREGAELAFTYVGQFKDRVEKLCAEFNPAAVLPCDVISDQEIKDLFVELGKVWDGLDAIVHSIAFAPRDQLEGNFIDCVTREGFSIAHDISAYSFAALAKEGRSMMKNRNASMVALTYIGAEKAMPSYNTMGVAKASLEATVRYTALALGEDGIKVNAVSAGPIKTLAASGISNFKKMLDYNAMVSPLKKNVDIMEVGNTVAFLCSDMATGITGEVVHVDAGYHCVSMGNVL
Chain of FtuFabI (Q5NGQ3 1-260 limits assumed): as above

`CC1(C)S[C@@H]2[C@H](NC(=O)[C@H](N)c3ccccc3)C(=O)N2[C@H]1C(=O)O` [Ampicillin, reference compound]: the “Depolarization (done at 2X MIC)” value in the experiment on S. aureus membrane was “No depolarization”. For the same compound, the “Cell viability (done at 2X MIC)” value with S. aureus is reported as “bactericidal”. For the same compound, the MIC in [1] amounted to 0.4 µg/mL (≈ 1.14 µM).

As for `N#CC(C#N)=NNc1cccc(Cl)c1` [CCCP, carbonyl cyanide m-chlorophenylhydrazone, reference compound], the “Depolarization (done at 2X MIC)” value in the experiment on S. aureus membrane is listed as “Highly depolarizing”. Besides, the “Cell viability (done at 2X MIC)” value in the experiment on S. aureus is “bactericidal”. Also, the MIC in experiment [1] (Staphylococcus aureus) stood at 1 µg/mL (≈ 4.89 µM).

For the compound `Cc1cc2ncn(Cc3ccc(Cl)c(Cl)c3)c2cc1C` [Compound 1, 1-(3,4-dichlorobenzyl)-5,6-dimethyl-1H-benzo[d]imidazole], at FtuFabI (setting [6]), the IC50 stood at 300 nM. Further, in the experiment on S. aureus membrane, the “Depolarization (done at 2X MIC)” value was “Depolarization seen initially in the first 60 min”. Besides, in the experiment on S. aureus, the “Cell viability (done at 2X MIC)” value is “Bactericidal intially but cells recover and compound is not lethal overnight”. The same compound had an MIC in [1] (Staphylococcus aureus) of 25 µg/mL (≈ 81.9 µM).

With `CC(c1ccc(Cl)c(Cl)c1)n1cnc2cc3c(cc21)CCC3` (centres unmarked) [Compound 3, 1-(1-(3,4-dichlorophenyl)ethyl)-1,5,6,7-tetrahydroindeno[5,6-d]imidazole], the IC50 against FtuFabI is 43 nM. Further, the “Depolarization (done at 2X MIC)” value with S. aureus membrane is “Initially depolarizing (in first 60 min) but cells ‘recover’ and regain polarization compared to control with no compound”. The MBC in experiment [2] is 12.5 µg/mL (≈ 37.7 µM); in experiment [3], 4.7 µg/mL (≈ 14.2 µM); in experiment [5], 9.4 µg/mL (≈ 28.4 µM); in experiment [1] (Staphylococcus aureus) it was more than 25 µg/mL; in the experiment on MRSA (ATCC number 43300), 12.5 µg/mL (≈ 37.7 µM). In addition, the MIC was 3.1 µg/mL (≈ 9.36 µM) in experiment [2]; 3.9 µg/mL (≈ 11.8 µM) in [3]; more than 12.5 µg/mL in experiment [4]; 3.9 µg/mL (≈ 11.8 µM) in [5]; 5.5 µg/mL (≈ 16.6 µM) in experiment [1]; 5.5 µg/mL (≈ 16.6 µM) in experiment [1] (Staphylococcus aureus). The same compound gave an MIC against MRSA (ATCC number 43300) of 6.3 µg/mL (≈ 19 µM). Besides, in the experiment with S. aureus, the “Cell viability (done at 2X MIC)” value is reported as “Bacteriostatic”.

On to `CC(c1ccc(Cl)c(Cl)c1)n1cnc2cc3c(cc21)CCCC3` (centres unmarked) [Compound 4, 1-(1-(3,4-dichlorophenyl)ethyl)-5,6,7,8-tetrahydro-1H-naphtho[2,3-d]imidazole], for which, at FtuFabI, the IC50 worked out at 630 nM. Also, the Ki came to 510 nM at FtuFabI and 570 ± 140 nM on FabI. Moreover, the “Depolarization (done at 2X MIC)” value in the experiment on S. aureus membrane was “Initially depolarizing (in first 60 min) but cells ‘recover’ and regain polarization compared to control with no compound”. Moreover, the MBC was more than 25 µg/mL in experiment [2]; 3.1 µg/mL (≈ 8.98 µM) in experiment [3]; 25 µg/mL (≈ 72.4 µM) in [5]; 25 µg/mL (≈ 72.4 µM) in experiment [1] (Staphylococcus aureus); 25 µg/mL (≈ 72.4 µM) with MRSA (ATCC number 43300). For the same compound, the MIC is 3.1 µg/mL (≈ 8.98 µM) in experiment [2]; 3.1 µg/mL (≈ 8.98 µM) in [3]; more than 12.5 µg/mL in [4]; 3.1 µg/mL (≈ 8.98 µM) in [5]; 3.1 µg/mL (≈ 8.98 µM) in experiment [1]; 3.1 µg/mL (≈ 8.98 µM) in experiment [1] (Staphylococcus aureus). Also, the MIC in the experiment on MRSA (ATCC number 43300) amounted to 3.1 µg/mL (≈ 8.98 µM). For the same compound, the “Cell viability (done at 2X MIC)” value with S. aureus was “Clearly bacteriostatic”.

For the compound `COc1ccc(Cn2cnc3cc4c(cc32)CCCC4)cc1C` [Compound 9, 1-(4-methoxy-3-methylbenzyl)-5,6,7,8-tetrahydro-1H-naphtho[2,3-d]imidazole], the IC50 on FtuFabI (read-out: IC50) and on FtuFabI (setting [6]) was 140 nM each time. Moreover, the figures for the Ki on FtuFabI (setting [7]) and on FabI (setting [8]) were 110 nM and 130 ± 10 nM, respectively. Moreover, the “Depolarization (done at 2X MIC)” value in the experiment with S. aureus membrane is “Initially depolarizing (in first 60 min) but cells ‘recover’ and regain polarization compared to control with no compound”. Besides, the MBC in experiment [2] was 9.4 µg/mL (≈ 30.7 µM); in [3], 6.3 µg/mL (≈ 20.6 µM); in experiment [5] it was 6.3 µg/mL (≈ 20.6 µM); in experiment [1] (Staphylococcus aureus), 25 µg/mL (≈ 81.6 µM). Also, the MIC in experiment [2] was 4.7 µg/mL (≈ 15.3 µM); in experiment [3], 6.3 µg/mL (≈ 20.6 µM); in experiment [4], more than 12.5 µg/mL; in [5], 3.1 µg/mL (≈ 10.1 µM); in experiment [1], 6.3 µg/mL (≈ 20.6 µM); in [1] (Staphylococcus aureus) it was 6.3 µg/mL (≈ 20.6 µM). The compound further returned an MIC in the experiment on MRSA (ATCC number 43300) of 12.5 µg/mL (≈ 40.8 µM). Also, in the experiment on S. aureus, the “Cell viability (done at 2X MIC)” value is on record as “Clearly bacteriostatic”.

Consider `COc1ccc(Cn2cnc3cc4c(cc32)CCCC4)cc1OC` [Compound 10, 1-(3,4-dimethoxybenzyl)-5,6,7,8-tetrahydro-1H-naphtho[2,3-d]imidazole], for which the IC50 on FtuFabI (read-out: IC50) and on FtuFabI (setting [6]) was 1360 nM throughout. Besides, the Ki at FtuFabI (setting [7]) was 1100 nM; on FabI (setting [8]), 1430 ± 270 nM. Also, the MIC (in [2]; in experiment [3]; in experiment [4]; in experiment [5]; in [1] (Staphylococcus aureus); against MRSA (ATCC number 43300)) was more than 12.5 µg/mL throughout.

As to `c1cc2c(cc1Cn1cnc3cc4c(cc31)CCCC4)OCO2` [Compound 14, 1-(benzo[d][1,3]dioxol-5-ylmethyl)-5,6,7,8-tetrahydro-1H-naphtho[2,3-d]imidazole], the IC50 on FtuFabI (read-out: IC50) and on FtuFabI (setting [6]) was 320 nM each time. Also, the Ki on FtuFabI (setting [7]) was 260 nM; at FabI (setting [8]), 330 ± 40 nM. In addition, the “Depolarization (done at 2X MIC)” value with S. aureus membrane is on record as “Clearly no depolarization seen”. Moreover, the MBC was 25 µg/mL (≈ 81.6 µM) in [2], 18.8 µg/mL (≈ 61.4 µM) in [5], more than 25 µg/mL in experiment [1] (Staphylococcus aureus) and more than 25 µg/mL against MRSA (ATCC number 43300). Besides, the MIC in experiment [2] was 9.4 µg/mL (≈ 30.7 µM); in [3], more than 12.5 µg/mL; in experiment [4] it was more than 12.5 µg/mL; in experiment [5], 4.7 µg/mL (≈ 15.3 µM); in experiment [1], 4.7 µg/mL (≈ 15.3 µM); in [1] (Staphylococcus aureus), 4.7 µg/mL (≈ 15.3 µM). Further, the MIC in the experiment on MRSA (ATCC number 43300) was found to be 6.3 µg/mL (≈ 20.6 µM). The “Cell viability (done at 2X MIC)” value in the experiment with S. aureus was “Clearly bacteriostatic”.

On to `Oc1cc(Cl)ccc1Oc1ccc(Cl)cc1Cl` [Triclosan, reference compound], for which the “Depolarization (done at 2X MIC)” value in the experiment with S. aureus membrane is “Strongly depolarizing”. Moreover, the “Cell viability (done at 2X MIC)” value with S. aureus is listed as “Possibly bacteriostatic initially but then bactericidal after overnight incubation”. The MIC in experiment [1] (Staphylococcus aureus) was found to be 0.4 µg/mL (≈ 1.38 µM).
